Measured values taken from patent US20120264735A1 (priority 2009, published 2012).

target: T1, c-Met kinase (recombinant c-Met) (Homo sapiens, UniProt P08581); experiment: In vitro kinase assay I (homogeneous time-resolved fluorescence tyrosine kinase assay); type: biochemical
T1 construct: 0.27 nM recombinant c-Met
Method in brief: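 Biotinylated peptide (0.5 μM) phosphorylated by 0.2 nM recombinant c-Met with 50 μM MgATP, 60 min at room temperature, pH 7.4, 5% DMSO. EDTA stop; HTRF read with Eu-anti-phosphotyrosine antibody and streptavidin-APC. IC50 from 4-parameter logistic fit.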

T1 sequence (P08581 25-1390): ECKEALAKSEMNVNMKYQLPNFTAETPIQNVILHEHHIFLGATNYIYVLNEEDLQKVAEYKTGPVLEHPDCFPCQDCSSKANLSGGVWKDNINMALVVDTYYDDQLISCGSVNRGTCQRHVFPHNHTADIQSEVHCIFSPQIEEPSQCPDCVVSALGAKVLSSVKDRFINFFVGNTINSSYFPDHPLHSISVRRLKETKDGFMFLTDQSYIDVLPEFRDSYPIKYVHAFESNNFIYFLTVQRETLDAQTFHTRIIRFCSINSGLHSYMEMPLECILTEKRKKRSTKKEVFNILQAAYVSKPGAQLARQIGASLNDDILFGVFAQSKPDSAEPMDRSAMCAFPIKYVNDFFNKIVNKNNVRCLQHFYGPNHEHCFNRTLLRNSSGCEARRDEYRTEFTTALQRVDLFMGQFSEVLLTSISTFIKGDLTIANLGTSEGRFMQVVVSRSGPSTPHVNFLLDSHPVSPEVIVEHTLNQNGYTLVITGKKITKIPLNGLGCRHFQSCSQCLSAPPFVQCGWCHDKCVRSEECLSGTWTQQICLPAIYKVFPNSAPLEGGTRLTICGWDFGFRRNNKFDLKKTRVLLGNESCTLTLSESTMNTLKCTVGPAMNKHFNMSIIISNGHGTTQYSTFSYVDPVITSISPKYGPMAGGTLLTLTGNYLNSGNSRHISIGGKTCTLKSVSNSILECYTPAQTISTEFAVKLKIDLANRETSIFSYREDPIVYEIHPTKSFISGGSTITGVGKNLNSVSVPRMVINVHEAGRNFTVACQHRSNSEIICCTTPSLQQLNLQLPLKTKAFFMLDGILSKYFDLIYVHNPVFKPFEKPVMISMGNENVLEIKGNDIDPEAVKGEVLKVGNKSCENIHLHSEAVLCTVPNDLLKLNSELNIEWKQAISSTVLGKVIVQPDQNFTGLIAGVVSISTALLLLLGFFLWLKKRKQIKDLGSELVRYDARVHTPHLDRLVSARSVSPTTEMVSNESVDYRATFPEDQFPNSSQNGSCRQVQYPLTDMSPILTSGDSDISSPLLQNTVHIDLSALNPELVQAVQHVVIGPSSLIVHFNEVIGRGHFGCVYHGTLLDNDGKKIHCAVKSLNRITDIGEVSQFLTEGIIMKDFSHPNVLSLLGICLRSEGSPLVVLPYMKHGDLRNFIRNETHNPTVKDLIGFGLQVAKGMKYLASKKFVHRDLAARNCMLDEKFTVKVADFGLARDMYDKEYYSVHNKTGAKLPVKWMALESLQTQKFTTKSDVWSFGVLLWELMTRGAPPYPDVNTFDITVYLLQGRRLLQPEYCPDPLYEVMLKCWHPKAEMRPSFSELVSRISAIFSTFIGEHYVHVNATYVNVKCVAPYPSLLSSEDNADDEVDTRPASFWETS

SMILES | IC50
CCCn1cc(-n2ccc(=O)c(Cc3cccc(NC(=O)OCC(C)C)c3)n2)cn1 [Example 113, 2-methylpropyl (3-{[4-oxo-1-(1-propyl-1H-pyrazol-4-yl)-1,4-dihydropyridazin-3-yl]methyl}phenyl)carbamate] | < 0.1 µM
CCCn1cc(-n2ccc(=O)c(Cc3cccc(-c4ncc(OC)cn4)c3)n2)cn1 [Example 114, 3-[3-(5-methoxypyrimidin-2-yl)benzyl]-1-(1-propyl-1H-pyrazol-4-yl)pyridazin-4(1H)-one] | < 0.1 µM
CCn1cc(-n2ccc(=O)c(Cc3cccc(NC(=O)OCCN4CCOCC4)c3)n2)cn1 [Example 115, 2-morpholin-4-ylethyl (3-{[1-(1-ethyl-1H-pyrazol-4-yl)-4-oxo-1,4-dihydropyridazin-3-yl]methyl}phenyl)carbamate] | < 0.1 µM
O=C(Nc1cccc(Cc2nn(-c3cnn(CC(F)(F)F)c3)ccc2=O)c1)OCCN1CCOCC1 [Example 116, 2-morpholin-4-ylethyl [3-({4-oxo-1-[1-(2,2,2-trifluoroethyl)-1H-pyrazol-4-yl]-1,4-dihydropyridazin-3-yl}methyl)phenyl]carbamate] | < 0.1 µM
CCCn1cc(-n2ccc(=O)c(Cc3cccc(NC(=O)OCCN4CCOCC4)c3)n2)cn1 [Example 117, 2-morpholin-4-ylethyl (3-{[4-oxo-1-(1-propyl-1H-pyrazol-4-yl)-1,4-dihydropyridazin-3-yl]methyl}phenyl)carbamate] | < 0.1 µM
CCOc1cnc(-c2ccc(F)c(Cc3nn(-c4cnn(C)c4)ccc3=O)c2)nc1 [Example 118, 3-[5-(5-ethoxypyrimidin-2-yl)-2-fluorobenzyl]-1-(1-methyl-1H-pyrazol-4-yl)pyridazin-4(1H)-one] | < 0.1 µM
CCOc1cnc(-c2cc(Cc3nn(-c4cnn(C)c4)ccc3=O)ccc2F)nc1 [Example 119, 3-[3-(5-ethoxypyrimidin-2-yl)-4-fluorobenzyl]-1-(1-methyl-1H-pyrazol-4-yl)pyridazin-4(1H)-one] | 0.1 to 1 µM
CCOc1cnc(-c2cc(F)cc(Cc3nn(-c4cnn(C)c4)ccc3=O)c2)nc1 [Example 120, 3-[3-(5-ethoxypyrimidin-2-yl)-5-fluorobenzyl]-1-(1-methyl-1H-pyrazol-4-yl)pyridazin-4(1H)-one] | < 0.1 µM
CCOc1cnc(-c2cccc(Cc3nn(-c4cnn(C)c4)ccc3=O)c2F)nc1 [Example 121, 3-[3-(5-ethoxypyrimidin-2-yl)-2-fluorobenzyl]-1-(1-methyl-1H-pyrazol-4-yl)pyridazin-4(1H)-one] | 0.1 to 1 µM
Cn1cc(-n2ccc(=O)c(Cc3cccc(-c4ncc(O[C@H]5CC[C@](C)(O)CC5)cn4)c3)n2)cn1 [Example 122, 3-(3-{5-[(trans-4-hydroxy-4-methylcyclohexyl)oxy]pyrimidin-2-yl}benzyl)-1-(1-methyl-1H-pyrazol-4-yl)pyridazin-4(1H)-one] | < 0.1 µM

Continued, values first:

IC50 | SMILES
< 0.1 µM | CCOC(=O)Nc1cccc(Cc2nn(-c3cnn(CC)c3)ccc2=O)c1 [Example 109, ethyl (3-{[1-(1-ethyl-1H-pyrazol-4-yl)-4-oxo-1,4-dihydropyridazin-3-yl]methyl}phenyl)carbamate]
< 0.1 µM | CCn1cc(-n2ccc(=O)c(Cc3cccc(NC(=O)OCC(C)C)c3)n2)cn1 [Example 110, 2-methylpropyl (3-{[1-(1-ethyl-1H-pyrazol-4-yl)-4-oxo-1,4-dihydropyridazin-3-yl]methyl}phenyl)carbamate]
< 0.1 µM | CCOC(=O)Nc1cccc(Cc2nn(-c3cnn(CC(F)(F)F)c3)ccc2=O)c1 [Example 111, ethyl [3-({4-oxo-1-[1-(2,2,2-trifluoroethyl)-1H-pyrazol-4-yl]-1,4-dihydropyridazin-3-yl}methyl)phenyl]carbamate]
< 0.1 µM | CCCn1cc(-n2ccc(=O)c(Cc3cccc(NC(=O)OCC)c3)n2)cn1 [Example 112, ethyl (3-{[4-oxo-1-(1-propyl-1H-pyrazol-4-yl)-1,4-dihydropyridazin-3-yl]methyl}phenyl)carbamate]
